BigSolDB 2.1

Details: in n-octanol

For `Cc1ccccc1C(=O)O`, the solubility (mole fraction) (297.15 K) was 0.155, the solubility (mole fraction) (299.65 K) was 0.165 and the solubility (mole fraction) (301.15 K) was 0.18. The solubility (mole fraction) (302.65 K) was 0.19, the solubility (mole fraction) (304.75 K) was 0.196 and the solubility (mole fraction) (305.35 K) was 0.197. The solubility (mole fraction) (306.25 K) was 0.2, the solubility (mole fraction) (306.95 K) was 0.208 and the solubility (mole fraction) (308.95 K) was 0.219. The solubility (mole fraction) (310.65 K) was 0.23, the solubility (mole fraction) (312.25 K) was 0.239 and the solubility (mole fraction) (314.05 K) was 0.25. It also gave a solubility (mole fraction) (315.75 K) of 0.26, a solubility (mole fraction) (316.95 K) of 0.271 and a solubility (mole fraction) (318.75 K) of 0.281. The solubility (mole fraction) (320.35 K) was 0.294 and the solubility (mole fraction) (321.55 K) was 0.305.
Work on `O=C(O)c1ccccc1` yielded a solubility (mole fraction) (300.15 K) of 0.192.
`O=C(O)c1ccc(O)cc1` gave a solubility (mole fraction) (297.65 K) of 0.105, a solubility (mole fraction) (299.95 K) of 0.107 and a solubility (mole fraction) (301.45 K) of 0.109. For the same molecule, the solubility (mole fraction) (302.85 K) was 0.11, the solubility (mole fraction) (304.25 K) was 0.112 and the solubility (mole fraction) (305.85 K) was 0.113. It also gave a solubility (mole fraction) (306.95 K) of 0.115, a solubility (mole fraction) (308.15 K) of 0.116 and a solubility (mole fraction) (309.85 K) of 0.117. The solubility (mole fraction) (311.25 K) was 0.119, the solubility (mole fraction) (313.15 K) was 0.121 and the solubility (mole fraction) (315.45 K) was 0.122. For the same molecule, the solubility (mole fraction) (317.25 K) was 0.124, the solubility (mole fraction) (318.65 K) was 0.126 and the solubility (mole fraction) (320.55 K) was 0.128. The solubility (mole fraction) (322.25 K) was 0.13.
In the case of `O=C(O)c1ccccc1[N+](=O)[O-]`, the solubility (mole fraction) (297.15 K) is reported as 0.0761, the solubility (mole fraction) (299.65 K) is reported as 0.0806 and the solubility (mole fraction) (300.15 K) is reported as 0.084. The solubility (mole fraction) (302.05 K) was 0.0895, the solubility (mole fraction) (303.15 K) was 0.0928 and the solubility (mole fraction) (306.15 K) was 0.101. For the same molecule, the solubility (mole fraction) (307.15 K) was 0.104, the solubility (mole fraction) (308.35 K) was 0.108 and the solubility (mole fraction) (309.25 K) was 0.113. The solubility (mole fraction) (310.15 K) was 0.117, the solubility (mole fraction) (311.75 K) was 0.122 and the solubility (mole fraction) (313.15 K) was 0.129. It also gave a solubility (mole fraction) (314.85 K) of 0.135, a solubility (mole fraction) (317.15 K) of 0.141 and a solubility (mole fraction) (318.65 K) of 0.147. It also gave a solubility (mole fraction) (319.85 K) of 0.154 and a solubility (mole fraction) (321.15 K) of 0.161.
`Cc1ccc(C(=O)O)cc1` showed a solubility (mole fraction) (297.35 K) of 0.0595, a solubility (mole fraction) (298.05 K) of 0.0608 and a solubility (mole fraction) (298.95 K) of 0.0618. The solubility (mole fraction) (301.65 K) was 0.0663, the solubility (mole fraction) (307.25 K) was 0.0767 and the solubility (mole fraction) (308.65 K) was 0.0789. It also gave a solubility (mole fraction) (309.65 K) of 0.0816, a solubility (mole fraction) (312.95 K) of 0.0871 and a solubility (mole fraction) (314.35 K) of 0.0896. It also gave a solubility (mole fraction) (315.8 K) of 0.0925, a solubility (mole fraction) (317.65 K) of 0.0962 and a solubility (mole fraction) (319.65 K) of 0.0997. The solubility (mole fraction) (320.4 K) was 0.101, the solubility (mole fraction) (321.55 K) was 0.103 and the solubility (mole fraction) (322.15 K) was 0.104.
